Test results reported in US8207218B2, “DMAE as sole agent for the treatment of mild cognitive impairment” (Pierre Fabre Medicament, priority 2006, dated 2012).

Experiments:
[1] = tested on: healthy individuals with memory loss induced by injection of scopolamine; assay: Attention (Digit Symbol Substitution Test), alertness and mood (EVA by Bond and Lader), reaction times, after scopolamine; assay type: in vivo; conditions: 24 healthy individuals, repeated oral doses
Description: (§1) Under the present invention, the activity of DMAE and its salts and esters, and the hydrates and solvates, was assessed in a population in whom this memory disorder was induced by injection of scopolamine, to reproduce the profile of the target population.
(§2) The medications given were in forms suitable to be taken via oral route, corresponding to dosage units allowing daily doses in the order of 100 mg to 3 g, advantageously 300 mg to 3 g of active ingredient in adults, particularly in the order of 1500 mg per day. The tested medications led to plasma levels corresponding to a Cmax peak of around 1.5 μg/ml of DMAE and/or around 24 ng/ml of pGlu (pyroglutamic acid).
(§3) The Applicant conducted the following tests: • Memory test: Buschke Selective Reminding Test, • Attention test: Digit Symbol Substitution Test (90″) • Assessment of alertness and mood: EVA by Bond and Lader, • Sensory-motor performance tests: reaction times (total, decisional and motor)

[2] = tested on: healthy individuals with memory loss induced by injection of scopolamine; assay: Buschke Selective Reminding Test, memory loss induced by injection of scopolamine (cross-over study); assay type: in vivo; conditions: 24 healthy individuals, repeated oral doses
Description: as §1, §2, §3
The main results observed are given in the graphs of the appended FIGS. 1 to 4 in which: • LTS designates the number of words acquired in long-term storage, • LTR designates the number of words retrieved from long-term memory in each test i.e. the words belonging to LTS and which are recalled for the test in progress, and • CLTR designates the number of words which are consistently acquired i.e. which are recalled during subsequent tests.

Compound | impact on the other cognitive components tested such as alertness, attention [1] | effect on memory performance levels [2]
CN(C)CCO.O=C1CC[C@@H](C(=O)O)N1 [DMAE pyroglutamate] | without any impact | specific effect on memory performance levels
CN(C)CCO [DMAE, dimethylaminoethanol] | without any impact | specific effect on memory performance levels
